Experimental data as given in US20210238173A1, “MITOGEN-ACTIVATED PROTEIN KINASE KINASE 7 INHIBITORS” (Yeda Research and Development Co. Ltd., priority 2018, published 2021).
Where “and” joins values, the source holds several entries; their conditions need not be identical. Equal entries are not always repeated.

How the values were obtained:
MKK7 = molecular target: T1, MKK7 (Homo sapiens, UniProt O14733); assay: In vitro kinase activity assay for MKK7 (Nanosyn); format: biochemical; conditions: read-out: MKK7 IC50 in vitro
T1 construct: purchased Nanosyn (contract assay)
T1 sequence (O14733 1-419): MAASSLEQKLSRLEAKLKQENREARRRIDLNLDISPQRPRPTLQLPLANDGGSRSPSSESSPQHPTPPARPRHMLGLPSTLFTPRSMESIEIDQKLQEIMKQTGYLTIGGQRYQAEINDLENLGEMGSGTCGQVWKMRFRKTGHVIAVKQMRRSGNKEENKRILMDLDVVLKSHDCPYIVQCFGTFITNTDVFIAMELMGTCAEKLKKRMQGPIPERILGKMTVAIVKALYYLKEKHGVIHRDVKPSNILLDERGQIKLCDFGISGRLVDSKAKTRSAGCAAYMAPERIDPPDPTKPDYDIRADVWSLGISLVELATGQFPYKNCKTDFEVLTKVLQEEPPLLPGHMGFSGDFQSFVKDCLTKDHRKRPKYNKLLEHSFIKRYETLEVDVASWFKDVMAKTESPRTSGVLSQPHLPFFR
Experimental: Based on visual inspection of the top 500 predictions, 10 compounds were selected for synthesis and testing (see, Table 1). The “Docking rank” is given in its respective run, whereas four virtual libraries of acrylamides were docked separately, based on the amine precursor for the acrylamide (primary or secondary aliphatic amines, primary or secondary aromatic amines). In vitro kinase activity assay was carried out by Nanosyn, as described below.
In Vitro Activity Assays for MKK7 or MKK4 (Carried by Nanosyn):
Exemplary test compounds, according to some embodiments of the present invention, were diluted in DMSO to a final concentration that ranged from 10 μM to 0.0565 nM, while final concentration of DMSO in all assays was kept at 1%. Reference compound, Staurosporine, was tested in a similar manner. […] After incubation, activity of now activated JNK1 was tested in the presence of 30 μM ATP ATP for 17 h (MKK7) or 4 h (MKK4).

pJNK in HEK293 cells = assay: In-cell western (ICW) pJNK inhibition in HEK293; format: cell-based; conditions: Homo sapiens, HEK293, HEK293, ICW, 2 h pre-incubation, sorbitol stimulation
Experimental: (§1) HEK293, Beas2B and 3T3 cells were plated 24 hours before procedure on 384 well clear bottom black flat plates (Corning) pre-coated with Fibronectin (Sigma) diluted in PBS to a concentration of 5 μg/ml 45 minutes prior to cells introduction. Cells were plated using Multidrop™ Combi reagent dispenser (Thermo Fisher Scientific). Compound, reagents and antibody dispensing as well as washes were performed with a CyBio liquid handler (Analytik). Cells were pre-incubated with a small molecule or up to 1% DMSO for 2 h before fixation. HEK293, 3T3 or Beas2B cells were treated with 0.6M/0.2M/0.2M D-Sorbitol/PBS (Sigma) for 20/40/40 min. respectively, before fixation. Media was removed and wells were immediately fixed with 150 μl per well of 3.7% formaldehyde/PBS fixing solution for 20 min. Formaldehyde was then aspired and cells were permeabilized with 150 μl of 0.5% Triton x-100/PBS solution for 10 min. After aspiration cells were washed with ice-cold methanol and stored at −20° C., for 10 min. Methanol was aspired and cells were blocked with 150 μl blocking buffer (LICOR) for 90 min. Primary antibody Phospho-SAPK/JNK T183/Y185 (CST; 9251S) was diluted 1:1000 in blocking buffer and was applied 50 μl per well, except control wells to which only blocking buffer was applied, O.N. (16 h) at 4° C. with mild shaking. Primary antibody was aspired, wells were washed with 150 μl 0.1% Tween20/PBS (Sigma) washing solution three times for 7 min. IRDye® 800CW Goat anti-Rabbit IgG Secondary antibody (LICOR) was then diluted 1:1200 in blocking buffer with 50 μl applied per well on control wells only (no CellTag control), then CellTag700 (1:2000) was added to the solution and 50 μl were added to all experiment wells, for 1 h at room temperature. Wells were aspired and washed again with 150 μl 0.1% Tween20/PBS (Sigma) washing solution three times for 7 min. plate was dried and scanned with Odyssey CLx imaging system at 700 nm and 800 nm (Licor). Wells signals were analyzed with Odyssey software. The signal was normalized by the CellTag700 signal.
(§2) To rapidly assess the cellular activity (EC50) with full dose response curves of the MKK7 covalent inhibitors, according to some embodiments of the present invention, an in-cell western assay was adapted to a 384 well plate format over traditional western blot, and monitored phospho-JNK (pJNK) levels in response to osmotic shock. We first characterized the dynamics of pJNK in response to sorbitol. Sufficient dynamic range for pJNK is achieved at 20 minutes in HEK293 cells and at 40 minutes in 3T3 and Beas2B cells. The compound's activity was assessed by pre-treating cells with either compound or DMSO for 2 hours, followed by Sorbitol stimulation. The response of pJNK, and its substrates, pc-Jun and pATF2, was measured, as well as pP38, which is a substrate of MKK4 but not MKK7, and pERK in HEK293 cells, and the results are presented in Table 5 below.

[1] = Metabolic stability in monkey liver microsomes; format: in vitro ADME
Text: (§3) A reference compound, REF1250, was used in this study: […]

[2] = Metabolic stability in dog liver microsomes; format: in vitro ADME; conditions: for half-life: dog, liver microsomes
Text: as §3

[3] = Metabolic stability in rat liver microsomes; format: in vitro ADME; conditions: for half-life: rat, liver microsomes
Text: as §3

[4] = Metabolic stability in human liver microsomes; format: in vitro ADME; conditions: for half-life: human, liver microsomes
Text: as §3

[5] = Metabolic stability in mouse liver microsomes; format: in vitro ADME; conditions: for half-life: mouse, liver microsomes
Text: as §3

pJNK in 3T3 WT cells = assay: In-cell western (ICW) pJNK inhibition in 3T3 WT; format: cell-based; conditions: for EC50: 3T3 WT, ICW, 2 h pre-incubation, sorbitol stimulation
Experimental: as §1, §2
Wildtype 3T3 cells, 3T3 MKK7 double knock-out (MKK7^−/−) cells and MKK4/7 double knockouts (MKK4/7^−/−) were used to validate on target activity of the MKK7 covalent inhibitors presented herein.

Row | Structure (SMILES) | IC50 (MKK7) | % remaining @ 40 min [1] | % remaining @ 40 min [2] | % remaining @ 40 min [3] | half-life [3] | % remaining @ 40 min [4] | half-life [4] | % remaining @ 40 min [5] | half-life [5] | EC50 (pJNK in HEK293 cells) | other results
1 | C=CC(=O)Nc1cccc2[nH]ncc12 [GO1] | > 10000 nM | – | – | – | – | – | – | – | – | – | –
2 | C=CC(=O)NC1CCC(c2nc(-c3ccccc3)n[nH]2)CC1 (centres unmarked) [GO2] | > 10000 nM | – | – | – | – | – | – | – | – | – | –
3 | C=CC(=O)N1CCC(c2c[nH]c3ncccc23)CC1 [GO6] | > 10000 nM | – | – | – | – | – | – | – | – | – | –
4 | C=CC(=O)Nc1ccc2c(c1)C(=O)NC2 [GO7] | 873 nM | – | – | – | – | – | – | – | – | – | –
5 | C=CC(=O)NCC1CCCN(c2cc(NC)ncn2)C1 (centres unmarked) [GO8] | > 10000 nM | – | – | – | – | – | – | – | – | – | –
6 | C=CC(=O)NCC1CCCN1c1cc(NC)ncn1 (centres unmarked) [GO9] | > 10000 nM | – | – | – | – | – | – | – | – | – | –
7 | C=CC(=O)N1CCN(CC2=NC(C)N=N2)CC1 (centres unmarked) [GO10] | > 10000 nM | – | – | – | – | – | – | – | – | – | –
8 | C=CC(=O)N1CCOC(c2nc(CCC)n[nH]2)C1 (centres unmarked) [GO14] | > 10000 nM | – | – | – | – | – | – | – | – | – | –
9 | C=CC(=O)Nc1cccc(-c2n[nH]c3c2CNCC3)c1 [GO64] | 2460 nM | – | – | – | – | – | – | – | – | > 10000 nM | –
10 | C=CC(=O)Nc1cc(C(=O)O)cc(-c2n[nH]c3ccccc23)c1 [PCM476] | – | 100% | 100% | 61% | – | 100% | – | 100% | – | – | Halflife [1]: >40 min; Halflife [2]: >40 min; Halflife [3]: >40 min; Halflife [4]: >40 min; Halflife ([4]; listed as PCM76): more than 40 min; EC50 (pJNK in 3T3 WT cells): > 10000 nM; activity in ICW in 3T3 cells (pJNK in 3T3 WT cells): inactive; Halflife [5]: >40 min
11 | C=CC(=O)N[C@H]1CCCN(c2[nH]nc3ccccc23)C1 [PCM531] | – | – | – | – | – | – | – | – | – | > 10000 nM | activity in ICW in 3T3 cells (pJNK in 3T3 WT cells): inactive
12 | C=CC(=O)Nc1cc(C(=O)N(C)C)cc(-c2n[nH]c3ccccc23)c1 [PCM549] | – | – | – | – | – | – | – | – | – | – | EC50 (pJNK in 3T3 WT cells): > 10000 nM
13 | COc1cc(OC)cc(C(C#N)(CCCN(C)CCc2ccc(OC)c(OC)c2)C(C)C)c1 (centres unmarked) [REF1250, reference compound] | – | 0% | 12% and 5% | 3% and 1% | 8 min | 5% and 3% | 9 min | 2% and 1% | 7 min | – | half-life [1]: < 5 min; half-life [2]: 12 min; Halflife [3]: 6 min; Halflife [5]: 6 min

The remaining compounds from weak to strong by IC50 (MKK7), led by results:

Row | IC50 (MKK7) | % remaining @ 40 min [1] | % remaining @ 40 min [2] | % remaining @ 40 min [3] | half-life [3] | % remaining @ 40 min [4] | half-life [4] | % remaining @ 40 min [5] | half-life [5] | Structure (SMILES) | EC50 (pJNK in HEK293 cells) | other results
14 | 812 nM | – | – | – | – | – | – | – | – | C=CC(=O)Nc1cccc(-c2n[nH]c3c(C)cccc23)c1 [GO81] | – | –
15 | 502 nM | – | – | – | – | – | – | – | – | C=CC(=O)Nc1ccc(N2CCNC2=O)cc1 [GO5] | – | –
16 | 267 nM | – | – | – | – | – | – | – | – | CN(C)C/C=C/C(=O)Nc1cccc(-c2n[nH]c3ccccc23)c1 [GO74] | – | –
17 | 193 nM | – | – | – | – | – | – | – | – | C=CC(=O)Nc1cccc(-c2n[nH]c3c2CN(C(=O)OC(C)(C)C)CC3)c1 [GO61] | > 10000 nM | –
18 | 73 nM | – | – | – | – | – | – | – | – | C=CC(=O)Nc1cccc(-c2n[nH]c3c2CCC3)c1 [GO49] | – | –
19 | 64 nM | 0% | 6% | 40% | 29 min | 13% | 13 min | 4% | 8 min | C=CC(=O)Nc1cccc(-c2n[nH]c3c2COCC3)c1 [GO55] | > 10000 nM | half-life [1]: < 5 min; half-life [2]: 9 min
20 | 47 nM | 0% | 0% | 1% | 6 min | 3% | 8 min | 0% | < 5 min | C=CC(=O)Nc1cccc(-c2n[nH]c3c(Cl)cccc23)c1 [GO89] | – | half-life [1]: < 5 min
21 | 30 nM | – | – | – | – | – | – | – | – | C#CCCCC(=O)N1CCc2[nH]nc(-c3cccc(NC(=O)C=C)c3)c2C1 [GO65] | – | –
22 | 27 nM | – | – | – | – | – | – | – | – | C=CC(=O)Nc1cccc(-c2n[nH]c3c([N+](=O)[O-])cccc23)c1 [GO29] | > 10000 nM | –
23 | 26 nM | 0% | 0% | 0% | < 5 min | 11% | 12 min | 0% | < 5 min | C=CC(=O)Nc1cc(-c2n[nH]c3ccccc23)ccc1C [GO72] | 4200 nM | half-life [1]: < 5 min; half-life [2]: < 5 min
24 | 11 nM | 0% | 0% | 48% | 35 min | 1% | < 5 min | 0% | 5 min | C=CC(=O)Nc1cccc(-c2n[nH]c3cc(OC)ccc23)c1 [GO83] | – | half-life [2]: < 5 min
25 | 11 nM | – | – | – | – | – | – | – | – | C=CC(=O)Nc1cccc(-c2n[nH]c3cc(-c4ccccc4)ccc23)c1 [GO101] | 1000 nM | –
26 | 10 nM | 1% | 1% | 4% | 8 min | 20% | 16 min | 18% | 11 min | C=CC(=O)Nc1cccc(-c2n[nH]c3c2CC(C)(C)CC3)c1 [GO54] | 3300 nM | half-life [1]: 5 min; half-life [2]: 6 min
27 | 5 nM | 0% | 0% | 17% | 16 min | 0% | < 5 min | 0% | < 5 min | C=CC(=O)Nc1cccc(-c2n[nH]c3cc(Cl)ccc23)c1 [GO106] | 3000 nM | half-life [1]: < 5 min; half-life [2]: < 5 min
28 | 4 nM | 0% | 0% | 0% | < 5 min | 0% | < 5 min | 0% | < 5 min | C=CC(=O)Nc1cc(C#N)cc(-c2n[nH]c3ccccc23)c1 [GO73] | – | half-life [1]: < 5 min; half-life [2]: < 5 min
29 | 4 nM | 0% | 0% | 2% | 7 min | 0% | < 5 min | 0% | < 5 min | C=CC(=O)Nc1cccc(-c2n[nH]c3c(F)cccc23)c1 [GO88] | 1800 nM | half-life [1]: < 5 min; half-life [2]: < 5 min
